US20070149485A1, “SELECTED DOSAGE FOR THE TREATMENT OF CARDIOVASCULAR AND RELATED PATHOLOGIES” (Medicure International, Inc., priority 2005, published 2007)

Experiments:
[1] = test system: high-risk patients undergoing CABG surgery with cardiopulmonary bypass; assay: Oral P5P in high-risk patients undergoing CABG surgery (randomized, double-blind, placebo-controlled): myocardial infarction and combined incidents to POD 30; format: in vivo, human; conditions: for Frequencies of myocardial infarction, cerebral infarction, or death, at POD 30: Myocardial infarction, cerebral infarction or death / Frequencies of myocardial infarction, cerebral infarction, or death, at POD 30: No myocardial infarction, cerebral infarction or death / Frequencies of myocardial infarction at POD 30: Myocardial Infarction / Frequencies of myocardial infarction at POD 30: No myocardial infarction: number of patients (% of group); for reducing post-CABG morbidity and mortality: CK-MB 100 ng/ml (post-hoc) as indicator; for reducing instances of myocardial infarction: vs placebo
From the text: A randomized, double-blind placebo-controlled, dose-ranging, parallel-arrn multi-center study was undertaken, on high-risk patients undergoing CABG surgery with cardiopulmonary bypass.
Patients were identified as “high risk” if they had two or more of the following risk factors: • Age greater than 65 years; • Current smoker;
Approximately 900 high risk pre-CABG patients in 42 different treatment centers in North America were screened and randomized to three groups of approximately 300 patients each, prior to their bypass surgery, as follows. Patients were either placed in a control group (placebo), treated orally with 250 mg/day of P5P (250 mg/day), or treated orally with 750 mg/day of P5P (750 mg/day).
The first dose of study medication was administered at 3-10 hours prior to CABG surgery. In the event of surgery delay or rescheduling, a second pre-operative dose of P5P was administered so that all patients received study medication 3-10 hours before surgery. Treatment continued for 30 days after surgery (post operative day (POD) 30). Patients received follow-up evaluations up to and including postoperative day (POD) 4, on POD 30 and on POD 90.
Patients were measured for combined incidence of cardiovascular death, nonfatal myocardial infarction (MI), and nonfatal cerebral infarction up to and including post-operative day 30 (POD 30). Patients were also measured for nonfatal myocardial infarction alone. All deaths without an identifiable non-cardiovascular cause were considered of cardiovascular origin.
Cerebral infarction (stroke) was defined clinically as any new sudden onset focal neurological deficit lasting at least 24 hours as assessed by a neurologist and after neuroimaging (computed tomography [CT] brain scan or magnetic resonance imaging [MRI]) had excluded an intracerebral hemorrhage. All patients suspected of having a stroke or transient ischemic attack (TIA) received a neurological examination (conducted by a neurologist or internist with expertise in cerebral vascular disease) within 24 hours of onset of symptoms. All patients suspected of having a stroke were submitted to cerebral imaging.
When determining whether a patient had myocardial infarction, the following definitions were used: • A peak creatine kinase—myocardial band (CK-MB) above a certain threshold. Since different experts and different prior art clinical trials used different cut-offs for this threshold, three different thresholds were used to determine whether a patient had myocardial infarction—a post-hoc cut off threshold of 100 ng/ml (a peak CK-MB of 100 ng/ml or greater on days up to and including POD 4), a post-hoc cut off threshold of 70 ng/ml, and a predefined cut off threshold of 50 ng/ml was used; • A new q-wave evidence of myocardial infarction along with CK-MB of 35 ng/ml or above on days up to and including POD 4; • A peak CK-MB of 5× ULN (25 ng/ml) or above occurring after POD 4; • A new q-wave evidence of myocardial infarction that was not present at POD 4; or • A q-wave or non-q-wave myocardial infarction as identified by the investigator and confirmed by the Clinical Endpoint Committee. A. Myocardial Infarction Rates CK-MB Cut-off of 100 ng/ml

[2] = in water, alcohol, and ether; cited from earlier work
[3] = test system: adenosine triphosphate (ATP) induced calcium ion influx into cells; conditions: a recent evaluation; suggested antagonism of P2 purinoceptors; cited from earlier work
[4] = test system: animal model of ischemic brain injury; conditions: animal model of ischemic brain injury (Wang, et al, J. Neurosurg. 2005); cited from earlier work
[5] = oral 250 mg/day, CK-MB cut-off 50 ng/ml
[6] = oral 250 mg/day, CK-MB cut-off 50 ng/ml (predefined)
[7] = oral 250 mg/day, CK-MB cut-off 70 ng/ml
[8] = oral 250 mg/day, CK-MB cut-off 70 ng/ml (post-hoc)
[9] = oral 250 mg/day, CK-MB cut-off 100 ng/ml
[10] = oral 250 mg/day, CK-MB cut-off 100 ng/ml (post-hoc)
[11] = oral 750 mg/day, CK-MB cut-off 50 ng/ml
[12] = oral 750 mg/day, CK-MB cut-off 50 ng/ml (predefined)
[13] = oral 750 mg/day, CK-MB cut-off 70 ng/ml
[14] = oral 750 mg/day, CK-MB cut-off 70 ng/ml (post-hoc)
[15] = oral 750 mg/day, CK-MB cut-off 100 ng/ml
[16] = oral 750 mg/day, CK-MB cut-off 100 ng/ml (post-hoc)

For Cc1ncc(COP(=O)(O)O)c(C=O)c1O [P5P, 3-hydroxy-2-methyl-5-[(phosphonooxy)methyl]-4-pyridine-carboxaldehyde], the “Frequencies of myocardial infarction, cerebral infarction, or death, at POD 30: Myocardial infarction, cerebral infarction or death” value [1, 5] was 65 (21.6%), the “Frequencies of myocardial infarction, cerebral infarction, or death, at POD 30: No myocardial infarction, cerebral infarction or death” value [1, 5] was 236 (78.4%) and the “Frequencies of myocardial infarction at POD 30: Myocardial Infarction” value [1, 6] was 59 (19.6%). For the same compound, the “Frequencies of myocardial infarction at POD 30: No myocardial infarction” value [1, 6] was 242 (80.4%), the “Frequencies of myocardial infarction, cerebral infarction, or death, at POD 30: Myocardial infarction, cerebral infarction or death” value [1, 7] was 41 (13.6%) and the “Frequencies of myocardial infarction, cerebral infarction, or death, at POD 30: No myocardial infarction, cerebral infarction or death” value [1, 7] was 260 (86.4%). For the same compound, the “Frequencies of myocardial infarction at POD 30: Myocardial Infarction” value [1, 8] was 34 (11.3%), the “Frequencies of myocardial infarction at POD 30: No myocardial infarction” value [1, 8] was 267 (88.7%) and the “Frequencies of myocardial infarction, cerebral infarction, or death, at POD 30: Myocardial infarction, cerebral infarction or death” value [1, 9] was 31 (10.3%). The “Frequencies of myocardial infarction, cerebral infarction, or death, at POD 30: No myocardial infarction, cerebral infarction or death” value [1, 9] was 270 (89.7%), the “Frequencies of myocardial infarction at POD 30: Myocardial Infarction” value [1, 10] was 23 (7.6%) and the “Frequencies of myocardial infarction at POD 30: No myocardial infarction” value [1, 10] was 278 (92.4%). The “Frequencies of myocardial infarction, cerebral infarction, or death, at POD 30: Myocardial infarction, cerebral infarction or death” value [1, 11] was 77 (25.6%), the “Frequencies of myocardial infarction, cerebral infarction, or death, at POD 30: No myocardial infarction, cerebral infarction or death” value [1, 11] was 224 (74.4%) and the “Frequencies of myocardial infarction at POD 30: Myocardial Infarction” value [1, 12] was 71 (23.6%). For the same compound, the “Frequencies of myocardial infarction at POD 30: No myocardial infarction” value [1, 12] was 230 (76.4%), the “Frequencies of myocardial infarction, cerebral infarction, or death, at POD 30: Myocardial infarction, cerebral infarction or death” value [1, 13] was 47 (15.6%) and the “Frequencies of myocardial infarction, cerebral infarction, or death, at POD 30: No myocardial infarction, cerebral infarction or death” value [1, 13] was 254 (84.4%). For the same compound, the “Frequencies of myocardial infarction at POD 30: Myocardial Infarction” value [1, 14] was 38 (12.6%), the “Frequencies of myocardial infarction at POD 30: No myocardial infarction” value [1, 14] was 263 (87.4%) and the “Frequencies of myocardial infarction, cerebral infarction, or death, at POD 30: Myocardial infarction, cerebral infarction or death” value [1, 15] was 34 (11.3%). The “Frequencies of myocardial infarction, cerebral infarction, or death, at POD 30: No myocardial infarction, cerebral infarction or death” value [1, 15] was 267 (88.7%), the “Frequencies of myocardial infarction at POD 30: Myocardial Infarction” value [1, 16] was 23 (7.6%) and the “Frequencies of myocardial infarction at POD 30: No myocardial infarction” value [1, 16] was 278 (92.4%). For the same compound, the “reducing post-CABG morbidity and mortality” value ([1]; oral 250 mg/day) was “effective”, the “reducing total incidents (myocardial infarction, cerebral infarction, or death)” value (“reducing total incidents” below) [1, 5] was “highly effective” and the “reducing instances of myocardial infarction” value (from here on “reducing instances”) [1, 5] was “highly effective”. The “reducing total incidents” value ([1]; oral 250 mg/day, CK-MB cut-off 70 ng/ml, better than 750 mg/day) was “highly effective”, the “reducing instances” value [1, 7] was “highly effective” and the “reducing total incidents” value ([1]; oral 250 mg/day, CK-MB cut-off 100 ng/ml, better than 750 mg/day) was “highly effective”. For the same compound, the “reducing instances” value [1, 9] was “highly effective”, the “reducing post-CABG morbidity and mortality” value ([1]; oral 750 mg/day) was “effective” and the “reducing total incidents” value [1, 11] was “did not reduce”. For the same compound, the “reducing instances” value [1, 11] was “not effective”, the “reducing total incidents” value [1, 13] was “highly effective” and the “reducing instances” value ([1]; oral 750 mg/day, CK-MB cut-off 70 ng/ml, not as effective as 250 mg/day) was “effective”. For the same compound, the “reducing total incidents” value [1, 15] was “highly effective”, the “reducing instances” value [1, 15] was “highly effective” and the “effectiveness at reducing post-CABG morbidity and mortality, 250 mg/day compared with 750 mg/day” value ([1]; oral, CK-MB level greater than 50 ng/ml (pre-defined) or 70 ng/ml (post-hoc) as indicator) was “higher effectiveness”. For the same compound, the solubility [2] was “essentially insoluble”, the “adenosine triphosphate (ATP) induced calcium ion influx into cells” value [3] was “inhibits” and the neuroprotective effects [4] was “neuroprotective effects”.
